Assay results as given in paper PMC6084407, “Structural Basis of Phosphatidic Acid Sensing by APH in Apicomplexan Parasites” (Structure(London, England:1993), 2018).

What was measured:
PfAPH106-235 [1] = molecular target: T1, PfAPH106-235 (Plasmodium falciparum, UniProt Q8I1U2, K138A/K140A); assay: biochemical
T1 construct: gene PF3D7_0414600

PfAPH106-235 [2] = molecular target: T2, PfAPH106-235 (Plasmodium falciparum, UniProt Q8I1U2, K140A); assay: biochemical
T2 construct: gene PF3D7_0414600
T2 sequence (Q8I1U2 106-235 K140A): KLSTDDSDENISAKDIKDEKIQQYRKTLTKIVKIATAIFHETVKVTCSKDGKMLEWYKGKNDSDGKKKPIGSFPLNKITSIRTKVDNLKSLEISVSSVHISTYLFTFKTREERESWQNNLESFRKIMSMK

PfAPH106-235 [3] = molecular target: T3, PfAPH106-235 (Plasmodium falciparum, UniProt Q8I1U2); assay: 1D 1H NMR LUV titration; assay type: binding
T3 construct: gene PF3D7_0414600; C-terminal PH domain, residues 106-235; codon-optimised gene, pNIC28a-Bsa4, E. coli BL21(DE3); N-terminal His6 tag cut by TEV
T3 sequence (Q8I1U2 entry or part of it): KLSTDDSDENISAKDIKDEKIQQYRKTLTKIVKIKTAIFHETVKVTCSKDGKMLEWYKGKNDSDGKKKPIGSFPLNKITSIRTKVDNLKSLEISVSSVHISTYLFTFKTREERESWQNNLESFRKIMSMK

PfAPH106-235 [4] = molecular target: T4, PfAPH106-235 (Plasmodium falciparum, UniProt Q8I1U2, F144A/I143A); assay: biochemical
T4 construct: gene PF3D7_0414600
T4 sequence (Q8I1U2 106-235 F144A/I143A): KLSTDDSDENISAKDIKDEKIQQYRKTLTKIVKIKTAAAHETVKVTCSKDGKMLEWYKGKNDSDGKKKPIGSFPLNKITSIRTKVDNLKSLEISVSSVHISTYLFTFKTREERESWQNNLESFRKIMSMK

PfAPH106-235 [5] = molecular target: T5, PfAPH106-235 (Plasmodium falciparum, UniProt Q8I1U2, K138A); assay: biochemical
T5 construct: gene PF3D7_0414600
T5 sequence (Q8I1U2 106-235 K138A): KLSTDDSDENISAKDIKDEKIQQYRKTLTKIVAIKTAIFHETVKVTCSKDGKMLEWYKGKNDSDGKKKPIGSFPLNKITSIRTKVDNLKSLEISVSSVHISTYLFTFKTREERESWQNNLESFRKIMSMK

PfAPH106-235 [6] = molecular target: T6, PfAPH106-235 (Plasmodium falciparum, UniProt Q8I1U2, H145A); assay: biochemical
T6 construct: gene PF3D7_0414600
T6 sequence (Q8I1U2 106-235 H145A): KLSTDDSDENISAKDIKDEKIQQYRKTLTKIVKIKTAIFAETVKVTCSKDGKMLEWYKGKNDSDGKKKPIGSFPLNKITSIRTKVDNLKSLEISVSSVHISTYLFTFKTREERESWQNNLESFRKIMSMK

PfAPH106-235 [7] = molecular target: T3, PfAPH106-235; assay: 1H-15N HSQC NMR titration; assay type: binding
Description: 1H-15N HSQC NMR titration on PfAPH106-235 | binding to the short-chain PA is in the fast exchange regime on the NMR timescale

TgAPH99-229 = molecular target: T7, TgAPH99-229 (Toxoplasma gondii, UniProt A0A125YY72); assay: 1H-15N HSQC NMR titration; assay type: binding; details: free short-chain lipid; 250 μM protein; buffer pH 7
T7 construct: gene TGME49_249970; C-terminal PH domain, residues 99-229; codon-optimised gene, pNIC28a-Bsa4, E. coli BL21(DE3); N-terminal His6 tag cut by TEV
T7 sequence (A0A125YY72 entry or part of it): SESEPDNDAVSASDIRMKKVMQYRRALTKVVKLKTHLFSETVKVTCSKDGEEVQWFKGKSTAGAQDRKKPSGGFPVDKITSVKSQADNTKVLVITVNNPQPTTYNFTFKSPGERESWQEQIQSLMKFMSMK

T1 sequence (Q8I1U2 106-235 K138A/K140A): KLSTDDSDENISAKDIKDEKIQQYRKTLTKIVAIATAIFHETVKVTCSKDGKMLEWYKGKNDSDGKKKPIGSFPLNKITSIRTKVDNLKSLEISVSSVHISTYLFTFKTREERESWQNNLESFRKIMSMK

Compound: CCCCCCCC/C=C\CCCCCCCC(=O)O[C@H](COC(=O)CCCCCCCCCCCCCCC)COP(=O)(O)O [POPA, 1-palmitoyl-2-oleoyl-sn-glycero-3-phosphate]
- Kd (PfAPH106-235 [1]): 1490 µM
- Kd (PfAPH106-235 [2]): 604 ± 29 µM
- Kd (PfAPH106-235 [3]): 275 ± 13 µM
- Kd (PfAPH106-235 [4]): 1320 µM
- Kd (PfAPH106-235 [5]): 959 ± 35 µM
- Kd (PfAPH106-235 [6]): 499 ± 9 µM

Compound: CCCCCCCC/C=C\CCCCCCCC(=O)O[C@H](COC(=O)CCCCCCCCCCCCCCC)COP(=O)([O-])OCC[N+](C)(C)C [POPC, 1-palmitoyl-2-oleoyl-sn-glycero-3-phosphocholine]
- Kd (PfAPH106-235 [3]): 1070 ± 33 µM

Compound: CCCCCCCC/C=C\CCCCCCCC(=O)O[C@H](COC(=O)CCCCCCCCCCCCCCC)COP(=O)(O)OC[C@H](N)C(=O)O [POPS, 1-palmitoyl-2-oleoyl-sn-glycero-3-phospho-L-serine]
- Kd (PfAPH106-235 [3]): 850 ± 13 µM

Compound: CCCCCC(=O)OC[C@H](COP(=O)(O)O)OC(=O)CCCCC [short-chain PA, 1,2-dihexanoyl-sn-glycero-3-phosphate]
- Kd (PfAPH106-235 [7]): > 50 µM
- 1H-15N HSQC NMR titration (TgAPH99-229): Binding experiments with recombinant APHs and short-chain PA enabled mapping
